Source: paper PMC7181660, “A novel specific PERK activator reduces toxicity and extends survival in Huntington's disease models” (Scientific Reports, 2020)
Read-outs that look alike come from different tables or passages of the source.

Experiments:
Assay in all cases: biochemical
Assay type in all cases: biochemical
panel of 391 kinases [1] = target: panel of 391 kinases (Homo sapiens, UniProt Q00534); conditions: MK-28 1 µM, ATP 1 µM; for remaining activity at 1 µM: read-out: % Enzyme Activity (relative to DMSO controls)
panel of 391 kinases [2] = target: panel of 391 kinases (Homo sapiens, UniProt P51956); conditions: NEK3, MK-28 1 µM, ATP 1 µM
panel of 391 kinases [3] = target: panel of 391 kinases (Homo sapiens, UniProt P57078); conditions: RIPK4, MK-28 1 µM, ATP 1 µM
panel of 391 kinases [4] = target: panel of 391 kinases (Homo sapiens, UniProt Q9NWZ3); conditions: IRAK4, MK-28 1 µM, ATP 1 µM
panel of 391 kinases [5] = target: panel of 391 kinases (Homo sapiens, UniProt Q02763); conditions: TIE2/TEK, MK-28 1 µM, ATP 1 µM
panel of 391 kinases [6] = target: panel of 391 kinases (Homo sapiens, UniProt P49137); conditions: MAPKAPK2, MK-28 1 µM, ATP 1 µM
panel of 391 kinases [7] = target: panel of 391 kinases (Homo sapiens, UniProt Q96BR1); conditions: SGK3/SGKL, MK-28 1 µM, ATP 1 µM
panel of 391 kinases [8] = target: panel of 391 kinases (Homo sapiens, UniProt P51813); conditions: BMX/ETK, MK-28 1 µM, ATP 1 µM
panel of 391 kinases [9] = target: panel of 391 kinases (Homo sapiens, UniProt Q5S007); conditions: LRRK2, MK-28 1 µM, ATP 1 µM
panel of 391 kinases [10] = target: panel of 391 kinases (Homo sapiens, UniProt P42685); conditions: FRK/PTK5, MK-28 1 µM, ATP 1 µM
panel of 391 kinases [11] = target: panel of 391 kinases (Homo sapiens, UniProt Q9UF33); conditions: EPHA6, MK-28 1 µM, ATP 1 µM
panel of 391 kinases [12] = target: panel of 391 kinases (Homo sapiens, UniProt P09769); conditions: FGR, MK-28 1 µM, ATP 1 µM
panel of 391 kinases [13] = target: panel of 391 kinases (Homo sapiens, UniProt Q9BZL6); conditions: PKD2/PRKD2, MK-28 1 µM, ATP 1 µM
panel of 391 kinases [14] = target: panel of 391 kinases (Homo sapiens, UniProt Q14680); conditions: MELK, MK-28 1 µM, ATP 1 µM
panel of 391 kinases [15] = target: panel of 391 kinases (Homo sapiens, UniProt P51812); conditions: RSK2, MK-28 1 µM, ATP 1 µM
panel of 391 kinases [16] = target: panel of 391 kinases (Homo sapiens, UniProt P23443); conditions: p70S6K/RPS6KB1, MK-28 1 µM, ATP 1 µM
panel of 391 kinases [17] = target: panel of 391 kinases (Homo sapiens, UniProt P78362); conditions: SRPK2, MK-28 1 µM, ATP 1 µM
panel of 391 kinases [18] = target: panel of 391 kinases (Homo sapiens, UniProt P07947); conditions: YES/YES1, MK-28 1 µM, ATP 1 µM
panel of 391 kinases [19] = target: panel of 391 kinases (Homo sapiens, UniProt P28482); conditions: ERK2/MAPK1, MK-28 1 µM, ATP 1 µM
panel of 391 kinases [20] = target: panel of 391 kinases (Homo sapiens, UniProt Q5TCX8); conditions: MLK4, MK-28 1 µM, ATP 1 µM
panel of 391 kinases [21] = target: panel of 391 kinases (Homo sapiens, UniProt P04049); conditions: RAF1, MK-28 1 µM, ATP 1 µM
panel of 391 kinases [22] = target: panel of 391 kinases (Homo sapiens, UniProt P29376); conditions: TYK1/LTK, MK-28 1 µM, ATP 1 µM
panel of 391 kinases [23] = target: panel of 391 kinases (Homo sapiens, UniProt Q8NE63); conditions: HIPK4, MK-28 1 µM, ATP 1 µM
panel of 391 kinases [24] = target: panel of 391 kinases (Homo sapiens, UniProt P35968); conditions: KDR/VEGFR2, MK-28 1 µM, ATP 1 µM
panel of 391 kinases [25] = target: panel of 391 kinases (Homo sapiens, UniProt Q12851); conditions: GCK/MAP4K2, MK-28 1 µM, ATP 1 µM
panel of 391 kinases [26] = target: panel of 391 kinases (Homo sapiens, UniProt Q15746); conditions: MLCK/MYLK, MK-28 1 µM, ATP 1 µM
[27] = read-out: % Enzyme Activity (relative to DMSO controls)

For CN(/N=C\c1ccc(O)c(O)c1)c1nc(-c2ccccc2)cc(-c2ccccc2)n1 [MK-28], the “% Enzyme Activity (relative to DMSO controls)” value (panel of 391 kinases [1]; CDK6/cyclin D1) was 98.75%, the remaining activity at 1 µM (panel of 391 kinases [1]; CDK6/cyclin D1) was 102% and the “% Enzyme Activity (relative to DMSO controls)” value (panel of 391 kinases [1]; CDK6/cyclin D3) was 86.79%. For the same compound, the remaining activity at 1 µM (panel of 391 kinases [1]; CDK6/cyclin D3) was 87.6%, the “% Enzyme Activity (relative to DMSO controls)” value (panel of 391 kinases [2]) was 77.47% and the remaining activity at 1 µM (panel of 391 kinases [2]; [27]) was 79.2%. For the same compound, the “% Enzyme Activity (relative to DMSO controls)” value (panel of 391 kinases [3]) was 89.94%, the remaining activity at 1 µM (panel of 391 kinases [3]; [27]) was 95.1% and the “% Enzyme Activity (relative to DMSO controls)” value (panel of 391 kinases [4]) was 124.00%. For the same compound, the remaining activity at 1 µM (panel of 391 kinases [4]; [27]) was 129%, the “% Enzyme Activity (relative to DMSO controls)” value (panel of 391 kinases [5]) was 98.55% and the remaining activity at 1 µM (panel of 391 kinases [5]; [27]) was 99%. For the same compound, the “% Enzyme Activity (relative to DMSO controls)” value (panel of 391 kinases [6]) was 93.81%, the remaining activity at 1 µM (panel of 391 kinases [6]; [27]) was 94% and the “% Enzyme Activity (relative to DMSO controls)” value (panel of 391 kinases [7]) was 103.83%. For the same compound, the remaining activity at 1 µM (panel of 391 kinases [7]; [27]) was 105%, the “% Enzyme Activity (relative to DMSO controls)” value (panel of 391 kinases [8]) was 100.53% and the remaining activity at 1 µM (panel of 391 kinases [8]; [27]) was 102%. The “% Enzyme Activity (relative to DMSO controls)” value (panel of 391 kinases [9]) was 90.69%, the remaining activity at 1 µM (panel of 391 kinases [9]; [27]) was 92.2% and the “% Enzyme Activity (relative to DMSO controls)” value (panel of 391 kinases [10]) was 100.16%. For the same compound, the remaining activity at 1 µM (panel of 391 kinases [10]; [27]) was 101%, the “% Enzyme Activity (relative to DMSO controls)” value (panel of 391 kinases [11]) was 92.67% and the remaining activity at 1 µM (panel of 391 kinases [11]; [27]) was 94%. For the same compound, the “% Enzyme Activity (relative to DMSO controls)” value (panel of 391 kinases [12]) was 99.92%, the remaining activity at 1 µM (panel of 391 kinases [12]; [27]) was 100% and the “% Enzyme Activity (relative to DMSO controls)” value (panel of 391 kinases [13]) was 86.38%. The remaining activity at 1 µM (panel of 391 kinases [13]; [27]) was 87%, the “% Enzyme Activity (relative to DMSO controls)” value (panel of 391 kinases [14]) was 84.50% and the remaining activity at 1 µM (panel of 391 kinases [14]; [27]) was 85.5%. For the same compound, the “% Enzyme Activity (relative to DMSO controls)” value (panel of 391 kinases [15]) was 95.23%, the remaining activity at 1 µM (panel of 391 kinases [15]; [27]) was 99.7% and the “% Enzyme Activity (relative to DMSO controls)” value (panel of 391 kinases [16]) was 97.34%. For the same compound, the remaining activity at 1 µM (panel of 391 kinases [16]; [27]) was 99%, the “% Enzyme Activity (relative to DMSO controls)” value (panel of 391 kinases [17]) was 102.82% and the remaining activity at 1 µM (panel of 391 kinases [17]; [27]) was 106%. The “% Enzyme Activity (relative to DMSO controls)” value (panel of 391 kinases [18]) was 96.24%, the remaining activity at 1 µM (panel of 391 kinases [18]; [27]) was 97.6% and the “% Enzyme Activity (relative to DMSO controls)” value (panel of 391 kinases [19]) was 105.81%. For the same compound, the remaining activity at 1 µM (panel of 391 kinases [19]; [27]) was 107%, the “% Enzyme Activity (relative to DMSO controls)” value (panel of 391 kinases [20]) was 96.53% and the remaining activity at 1 µM (panel of 391 kinases [20]; [27]) was 97.1%. For the same compound, the “% Enzyme Activity (relative to DMSO controls)” value (panel of 391 kinases [21]) was 93.95%, the remaining activity at 1 µM (panel of 391 kinases [21]; [27]) was 94.3% and the “% Enzyme Activity (relative to DMSO controls)” value (panel of 391 kinases [22]) was 82.78%. The remaining activity at 1 µM (panel of 391 kinases [22]; [27]) was 84.2%, the “% Enzyme Activity (relative to DMSO controls)” value (panel of 391 kinases [23]) was 97.91% and the remaining activity at 1 µM (panel of 391 kinases [23]; [27]) was 98.4%. The “% Enzyme Activity (relative to DMSO controls)” value (panel of 391 kinases [24]) was 98.38%, the remaining activity at 1 µM (panel of 391 kinases [24]; [27]) was 99.8% and the “% Enzyme Activity (relative to DMSO controls)” value (panel of 391 kinases [25]) was 97.18%. For the same compound, the remaining activity at 1 µM (panel of 391 kinases [25]; [27]) was 97.2%, the “% Enzyme Activity (relative to DMSO controls)” value (panel of 391 kinases [26]) was 91.99% and the remaining activity at 1 µM (panel of 391 kinases [26]; [27]) was 93%.
